Measured values as given in patent US20110071403A1, “FUNCTIONAL NEAR-INFRARED FLUORESCENCE LYMPHATIC MAPPING FOR DIAGNOSING, ACCESSING, MONITORING AND DIRECTING THERAPY OF LYMPHATIC DISORDERS” (BOARD OF REGENTS OF THE UNIVERSITY OF TEXAS SYSTEM, priority 2009, published 2011).
Where a SMILES comes first, the peptide text is derived from it. Bridges are numbered along the chain shown (N, C = ends). Where no end group is shown, it is not given here. The star is where a group is joined. IRDye800CW = CC1(C)C(/C=C/C2=C(Oc3ccc(S(=O)(=O)O)cc3)C(=C/C=C3/N(CCCCS(=O)(=O)O)c4ccc(S(=O)(=O)O)cc4C3(C)C)/CCC2)=[N+](CCCCCC(=O)*)c2ccc(S(=O)(=O)[O-])cc21; IRDye800 = IRDye800 fluorophore

Tests used:
[1] = cited from earlier work
[2] = taken up by the liver and secreted into the bile; cited from earlier work
[3] = system: lymphatics of arms and legs; assay: second human study: NIR fluorescence lymphatic imaging with intradermal ICG pre- and post-MLD, apparent lymph velocity and propulsion period; settings: intradermal ICG up to 400 μg; vitals 2 h, follow-up calls 24 and 48 h
Source text: Twelve normal volunteers and 10 subjects clinically diagnosed with Grade I or II unilateral LE participated and provided informed consent. […] The control subjects consisted of 2 males and 10 females, aged 22-59 years. The LE subjects were all female, aged 18-68 years with half experiencing lower extremity LE and the other half upper extremity LE. The injection sites were cleaned with a surgical scrub, followed by alcohol. Immediately after intradermal injection of imaging contrast agent using a 27 gauge needle, NIR fluorescence images were simultaneously acquired from both the LE and contralateral limbs of LE subjects. For control subjects, bilateral arms were imaged simultaneously in 6 subjects, and bilateral legs were imaged in the other 6 subjects. MLD was performed 30 to 60 minutes after the start of imaging followed by another 30 to 60 minutes of imaging. Vital signs were monitored for 2 hours after fluorescent agent administration and follow-up phone calls to assess subjects' condition were made 24 and 48 hours later. […]
The location and movement of lymphatic fluid containing ICG was imaged simultaneously in both limbs using two custom-built fluorescence imaging systems.

[4] = system: lymphatics of arms and legs; assay: first human study: NIR fluorescence lymphatic imaging with intradermal ICG, apparent lymph velocity and propulsion period in control and lymphedema subjects; settings: intradermal ICG up to 400 μg; vitals 2 h, follow-up calls 24 and 48 h
[5] = optical characterization of NIR imaging agents (spectra, extinction coefficient, quantum yield, lifetime, relative brightness); format: physicochemical; settings: for Emission maximum / Excitation maximum: 1 μM solution; for Extinction Coefficient × 10^4: at 785 nm; for Lifetime: frequency domain method, 785/830 (ex/em), ICG as standard
Procedure: Fluorescence quantum yield was determined by the comparative method of Williams et al. 1983 (Williams, Winfield and Miller. Analyst 109, 1067, 1983) using the quantum yield of ICG (in water) at 785/830 nm (24) as a standard. Lifetime measurements were obtained using the frequency domain-method using ICG as a standard. The IC50 of IRDye800-ABD was determined using a competitive binding assay modified from Dennis et al. 2002 (ibid). Briefly, MAXISORP fluorescent plates (Nunc, Rochester, N.Y.) were coated with mouse serum albumin (Sigma St Louis, Mo.) and incubated overnight at 4 degrees. Plates were washed three times with PBS+0.05% Tween20 (Sigma St. Louis, Mo.) to remove unbound albumin and were then blocked with TBS in casein (Pierce Rockford, Ill.) for 1 hour at 25 degrees. Equal volumes of unlabeled and labeled peptide were combined in centrifuge tubes for five different concentrations (0.05-10 nM) of unlabeled ABD peptide. The resulting peptide solution was then plated on the albumin coated plate, covered, and incubated for 1-2 hours at 37 degrees. The plate was washed with PBS+0.05% Tween20 three times to remove unbound peptide and fluorescence was measured using the ODYSSEY fluorescent plate reader (LI-COR, Lincoln, Nebr.). The average and standard deviation of four IC-50 values were determined.
In addition, Table 1 lists the relative brightness of each compound relative to ICG which was computed by taking the ratio of ((extinction coefficient)×(quantum yield))/((extinction coefficient of ICG)×(quantum yield of ICG)). […] Spectra for ICG and the IRDye800 conjugates were determined.

[6] = system: lymphatic vessels and nodes; assay: in vivo lymphatic imaging, dose escalation after intradermal injection at base of tail; design: species or system C57BL/6 mice
Procedure: (§1) Animal studies were conducted using shaved 6-7 week old female, C57BL/6 mice (Harlan, Charles River). […] Each mouse was injected intradermally at the base of the tail with 20 μL of 500 uM ICG or 20 μL of 100 μM dye for IRDye800, IRDy800-MSA and IRDye800-ABD in order to assess their performance in vivo. The injections were all made by the same investigator and the site was covered with sterile tape immediately prior to imaging to prevent camera saturation.
Animals were illuminated by a laser diode (100 mA, 80 mW for 785 nm, Sanyo; Richmond, Ind.) with the light source expanded to a circular area approximately 8 cm in diameter. Fluorescence emission was collected using an Electron Multiplying Charge Coupled Device (EMCCD) camera with a holographic notch-plus band-rejection filter (785-nm center wavelength for ICG) and a bandpass filter (830-nm center wavelength for ICG) placed prior to the lens to reject back-scattered and reflected excitation light. Fluorescence images were acquired with an integration time of 200 ms. For registration purposes, “white light” images were taken by removing the filters and acquiring images over 500 ms integration time. Up to 750 fluorescent images and 3 white light images were acquired immediately after injection on the left and right side of each animal. Statistical analyses of differences in fluorescent intensity were assessed by student t-test in which α=0.05. […] Images were processed using V++ software (Digital Optics; Auckland, New Zealand), and data was analyzed to determine in vivo fluorescent intensities in select regions of interest (ROI) using IMAGEJ (NIH, Bethesda, Md.) and MATLAB (The Mathworks). Statistical analysis was conducted using the student t-test with α=0.05.
In viva lymphatic imaging studies utilizing an escalating dose of IC was done.

[7] = biological target: mouse serum albumin (Mus musculus, UniProt P07724); settings: read-out: IC-50 of unconjugated ABD peptide for albumin; as reported by Dennis et al., 2002; cited from earlier work
mouse serum albumin (Mus musculus, UniProt P07724), sequence (P07724 25-608): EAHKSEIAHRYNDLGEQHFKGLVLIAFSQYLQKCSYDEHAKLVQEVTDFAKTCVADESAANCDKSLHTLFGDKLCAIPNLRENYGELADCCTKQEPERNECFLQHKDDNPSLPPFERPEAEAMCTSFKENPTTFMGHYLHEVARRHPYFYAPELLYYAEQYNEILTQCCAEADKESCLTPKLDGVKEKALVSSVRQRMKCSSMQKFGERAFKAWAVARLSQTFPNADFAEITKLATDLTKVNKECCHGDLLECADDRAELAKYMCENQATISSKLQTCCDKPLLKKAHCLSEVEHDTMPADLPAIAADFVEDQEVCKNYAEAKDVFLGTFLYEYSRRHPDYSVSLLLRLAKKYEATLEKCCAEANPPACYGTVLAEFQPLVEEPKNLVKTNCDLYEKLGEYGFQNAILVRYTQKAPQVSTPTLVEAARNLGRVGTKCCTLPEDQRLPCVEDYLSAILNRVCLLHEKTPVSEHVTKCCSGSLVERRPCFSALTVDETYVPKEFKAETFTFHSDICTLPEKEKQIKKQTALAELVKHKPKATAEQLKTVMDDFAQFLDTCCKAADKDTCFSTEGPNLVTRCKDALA

[8] = biological target: T1, integrin α9β1 on LECs (Homo sapiens, UniProt P05556+Q13797); assay: fluorescence microscopy of LECs stimulated by VEGF-C; format: cell-based
T1 construct: LECS stimulated by VEGF-C to express α9β1 on the extracellular membrane; endogenous in cells; host or cells: lymphatic endothelial cells (LECs) incubated with VEGF-C
T1 sequence (Q13797 30-1035): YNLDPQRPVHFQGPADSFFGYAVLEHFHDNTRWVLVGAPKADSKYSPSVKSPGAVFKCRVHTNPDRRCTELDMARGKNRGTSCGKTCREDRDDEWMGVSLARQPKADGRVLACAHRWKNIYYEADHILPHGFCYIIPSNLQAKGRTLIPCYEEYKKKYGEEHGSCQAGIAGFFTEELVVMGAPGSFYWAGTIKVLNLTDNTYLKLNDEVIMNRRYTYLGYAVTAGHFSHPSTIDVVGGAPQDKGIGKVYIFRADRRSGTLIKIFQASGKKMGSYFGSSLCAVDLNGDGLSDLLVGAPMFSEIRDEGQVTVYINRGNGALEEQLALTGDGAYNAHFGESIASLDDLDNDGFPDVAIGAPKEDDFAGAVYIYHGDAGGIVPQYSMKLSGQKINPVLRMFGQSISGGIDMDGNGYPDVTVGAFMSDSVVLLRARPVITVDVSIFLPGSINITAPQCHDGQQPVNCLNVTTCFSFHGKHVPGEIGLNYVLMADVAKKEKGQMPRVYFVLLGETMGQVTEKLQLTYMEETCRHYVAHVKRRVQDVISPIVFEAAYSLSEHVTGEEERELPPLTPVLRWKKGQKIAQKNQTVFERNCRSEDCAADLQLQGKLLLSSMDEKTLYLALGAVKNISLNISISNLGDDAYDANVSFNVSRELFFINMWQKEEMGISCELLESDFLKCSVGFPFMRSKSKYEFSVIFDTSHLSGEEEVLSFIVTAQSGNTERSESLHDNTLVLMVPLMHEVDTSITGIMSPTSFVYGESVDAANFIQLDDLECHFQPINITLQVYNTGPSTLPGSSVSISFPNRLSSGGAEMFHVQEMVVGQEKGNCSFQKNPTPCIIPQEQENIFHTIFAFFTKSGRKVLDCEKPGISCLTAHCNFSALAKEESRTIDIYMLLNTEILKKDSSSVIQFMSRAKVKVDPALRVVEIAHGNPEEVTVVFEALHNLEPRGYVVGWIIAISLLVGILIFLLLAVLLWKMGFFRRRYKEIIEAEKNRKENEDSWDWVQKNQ
T1 sequence (P05556 21-798): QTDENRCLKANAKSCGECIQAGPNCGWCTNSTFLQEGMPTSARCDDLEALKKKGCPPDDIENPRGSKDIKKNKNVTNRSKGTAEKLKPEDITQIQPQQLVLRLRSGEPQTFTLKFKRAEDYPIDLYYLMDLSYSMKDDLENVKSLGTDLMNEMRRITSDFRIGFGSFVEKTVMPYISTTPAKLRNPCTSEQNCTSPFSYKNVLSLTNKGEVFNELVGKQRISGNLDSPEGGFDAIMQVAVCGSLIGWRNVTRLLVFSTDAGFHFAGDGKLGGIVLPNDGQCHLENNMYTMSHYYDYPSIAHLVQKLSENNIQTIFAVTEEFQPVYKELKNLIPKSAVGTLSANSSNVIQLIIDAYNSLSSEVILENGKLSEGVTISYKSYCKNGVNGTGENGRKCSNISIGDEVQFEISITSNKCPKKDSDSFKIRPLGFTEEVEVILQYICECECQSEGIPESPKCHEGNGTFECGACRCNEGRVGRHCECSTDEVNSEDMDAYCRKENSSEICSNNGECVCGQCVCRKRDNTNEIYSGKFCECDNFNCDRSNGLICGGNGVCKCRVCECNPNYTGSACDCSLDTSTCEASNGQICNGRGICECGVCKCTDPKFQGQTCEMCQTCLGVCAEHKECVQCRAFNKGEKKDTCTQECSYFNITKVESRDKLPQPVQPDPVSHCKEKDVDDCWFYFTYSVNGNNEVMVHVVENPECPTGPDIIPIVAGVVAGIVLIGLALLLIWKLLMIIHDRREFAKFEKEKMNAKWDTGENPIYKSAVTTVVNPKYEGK
Source text: FIG. 19: Fluorescence microscopy of LECS stimulated by VEGF-C to express α9β1 on the extracellular membrane as stained by (from left to right, top) by (i) DAPI, a nuclear stain, (ii) IRDye800-[…] (SEQ ID NO: 2), the imaging conjugate that targets α9β1, and (iii) a fluorescently labeled antibody that targets the β1 portion of α9β1.
This targeting approach can be used to detect the process of lymphangiogenesis in animal models in, for example, drug discovery programs focusing on cessation of tumor lymphangiogenesis (such is associated with cancer metastasis), or as a diagnostic to detect the lymphangiogenesis that occurs in metastatic cancer and other tymphovascular disorders. Lymphangiogenesis and the accompanying activation of LECS are known to be stimulated by vascular endothelial growth factor-C (VEGF-C) or hepatic growth factor (HGF). […] When VEGF-C is not present during incubation, α9β1 (over) expression and IRDye800-[…] […] The induced lymphangiogenesis is clearly visualized by the increase in fluorescence 24 hours through […] after the administration of imaging conjugate, IRDye800-[…] […] (SEQ ID NO: 2) was injected intravenously and 24 hours later, NIR fluorescence imaging was conducted to assess increased update associated with those tissues that were the site of Oxazolone application and increased lymphatic vessel densities that are indicative of lymphangiogenesis.

[9] = system: lymphangiogenesis (α9β1); assay: […] plug (with/without HGF) mouse model of lymphangiogenesis, NIR fluorescence imaging; format: in vivo; settings: 24 hours after intradermal administration
Procedure: FIG. 20: NIR fluorescent image of an animal model of lymphangiogenesis (top) with a […] plug impregnated with LEC stimulating factor HGF on the right with a control […] plug without HGF on the left. The animal image (top) is taken 24 hours after administration of IRDye800-[…] (SEQ ID NO: 2) showing agent uptake into the […] plug containing LEC stimulating factor HGF and little or no uptake into the […] plug without HGF. When the […] plugs were removed from the animal and imaged, they were then imaged for the presence of IRDye800-[…] (SEQ ID NO: 2).
This targeting approach can be used to detect the process of lymphangiogenesis in animal models in, for example, drug discovery programs focusing on cessation of tumor lymphangiogenesis (such is associated with cancer metastasis), or as a diagnostic to detect the lymphangiogenesis that occurs in metastatic cancer and other tymphovascular disorders. […] The induced lymphangiogenesis is clearly visualized by the increase in fluorescence 24 hours through […] after the administration of imaging conjugate, IRDye800-[…] […] (SEQ ID NO: 2) was injected intravenously and 24 hours later, NIR fluorescence imaging was conducted to assess increased update associated with those tissues that were the site of Oxazolone application and increased lymphatic vessel densities that are indicative of lymphangiogenesis.

[10] = system: lymphangiogenesis (α9β1); assay: Oxazolone-induced skin inflammation mouse model, NIR fluorescence imaging; format: in vivo; settings: 24 hours after intravenous injection, right inflamed vs left untreated side
Procedure: The NIR imaging was conducted with intradermal administration of ICG (as shown above in human studies) to image both the right and left side lymphatics. […] Increased vessel density, leakiness, and dilated vessels on the inflamed side as compared to the untreated side of the animal as evident from the lymphatic imaging as compared to the left, untreated side.
The right side of the animal which has greater lymphatic density as indicated by ICG imaging (as shown in FIG. 21) is also associated with increased IRDye800-[…] (SEQ ID NO: 2) fluorescence presumably owing to the stimulation of LECS in the process of lymphangiogenesis to produce α9β1 integrin.
This targeting approach can be used to detect the process of lymphangiogenesis in animal models in, for example, drug discovery programs focusing on cessation of tumor lymphangiogenesis (such is associated with cancer metastasis), or as a diagnostic to detect the lymphangiogenesis that occurs in metastatic cancer and other tymphovascular disorders. Lymphangiogenesis and the accompanying activation of LECS are known to be stimulated by vascular endothelial growth factor-C (VEGF-C) or hepatic growth factor (HGF). […] The induced lymphangiogenesis is clearly visualized by the increase in fluorescence 24 hours through […] after the administration of imaging conjugate, IRDye800-[…] […]

[11] = system: inguinal lymph node; assay: lymphatic clearance study, fluorescence intensity in inguinal lymph node over time
Procedure: as §1
Animals were illuminated by a laser diode (100 mA, 80 mW for 785 nm, Sanyo; Richmond, Ind.) with the light source expanded to a circular area approximately 8 cm in diameter. Fluorescence emission was collected using an Electron Multiplying Charge Coupled Device (EMCCD) camera with a holographic notch-plus band-rejection filter (785-nm center wavelength for ICG) and a bandpass filter (830-nm center wavelength for ICG) placed prior to the lens to reject back-scattered and reflected excitation light. Fluorescence images were acquired with an integration time of 200 ms. […] Statistical analyses of differences in fluorescent intensity were assessed by student t-test in which α=0.05. […] Images were processed using V++ software (Digital Optics; Auckland, New Zealand), and data was analyzed to determine in vivo fluorescent intensities in select regions of interest (ROI) using IMAGEJ (NIH, Bethesda, Md.) and MATLAB (The Mathworks). […]

[12] = biological target: T2, mouse serum albumin (mouse, UniProt P07724 25-608); assay: competitive binding assay on plates coated with mouse serum albumin; unlabeled ABD peptide at 0.05-10 nM mixed with labeled peptide, fluorescence read-out; mean and SD of four IC-50 values
T2 construct: Bought protein; also called MSA

CC1(C)C(/C=C/C=C/C=C/C=C2\N(CCCCS(=O)(=O)O)c3ccc4ccccc4c3C2(C)C)=[N+](CCCCS(=O)(=O)[O-])c2ccc3ccccc3c21 [ICG, indocyanine green]
Quantum Yield (ICG standard) ([1]; ICG in water at 785/830 nm, used as standard): 0.016
maximal absorption ([1]; background statement): 780 nm
normal biological half-time [2]: 2-4 min
adverse events associated with the imaging agent [3]: No adverse events
adverse events associated with the drug [4]: No adverse events
Emission maximum [5]: 799
Excitation maximum [5]: 785
Extinction Coefficient × 10^4 [5]: 8.60 +/− 0.35
Lifetime [5]: 0.59 +/− 0.049
concentration sufficient to clearly depict lymphatic architecture in vivo ([6]; 20 μL intradermal at base of tail, mice): 500 µM
appearance of lymphatic vasculature ([6]; ICG at 500 μM): brighter and more prominent
appearance of lymphatic vessels and nodes ([6]; ICG at 20 and 100 uM): dim and difficult to discern

RLIEDICLPRWGCLWEDD [ABD peptide]
IC50 [7]: 5 nM

IRDye800-GGGPLAEIDGIELTY: IRDye800 conjugated to tenascin C derived integrin α9β1 binding peptide GGGPLAEIDGIELTY (SEQ ID NO: 2)
binding to LECs incubated in VEGF-C ([8]; VEGF-C for 30 minutes, co-stain with antibody to β1): co-localized with the antibody to β1
binding to LECs without VEGF-C ([8]; VEGF-C not present during incubation): not seen
fluorescence of control MATRIGEL plug with no HGF [9]: did not show appreciable fluorescence
fluorescence of resected MATRIGEL plug with HGF [9]: showed fluorescence
fluorescence in region of Oxazolone skin inflammation [10]: increased fluorescence

CC[C@H](C)[C@H](NC(=O)[C@H](CC(C)C)NC(=O)[C@H](CCCNC(=N)N)NC(=O)CCCCCN1C(=CC=C2CCCC(C=CC3=[N+](CCCCS(=O)(=O)[O-])c4ccc(S(=O)(=O)O)cc4C3(C)C)=C2Oc2ccc(S(=O)(=O)O)cc2)C(C)(C)c2cc(S(=O)(=O)O)ccc21)C(=O)N[C@@H](CCC(=O)O)C(=O)N[C@@H](CC(=O)O)C(=O)N[C@H](C(=O)N[C@H]1CSSC[C@@H](C(=O)N[C@@H](CC(C)C)C(=O)N[C@@H](Cc2c[nH]c3ccccc23)C(=O)N[C@@H](CCC(=O)O)C(=O)N[C@@H](CC(=O)O)C(=O)N[C@@H](CC(=O)O)C(=O)O)NC(=O)CNC(=O)[C@H](Cc2c[nH]c3ccccc23)NC(=O)[C@H](CCCNC(=N)N)NC(=O)[C@@H]2CCCN2C(=O)[C@H](CC(C)C)NC1=O)[C@@H](C)CC [IRDye800-ABD] (IRDye800CW-RLIEDICLPRWGCLWEDD-OH; disulfide 7-13; N-terminus and C-terminus assumed)
lymphatic clearance from inguinal lymph node ([11]; 0.5 to 50 min after injection): slowed clearance
fluorescence intensity in inguinal node, initially ([11]; initial time after intradermal injection): started out with a lower intensity
Emission maximum [5]: 803
Excitation maximum [5]: 780
Intensity relative to ICG ([5]; (extinction coefficient × quantum yield) ratio to ICG): 25.9
Quantum Yield ([5]; at 785/830 (ex/em), comparative method with ICG as standard): 0.0647 +/− 0.0007
Extinction Coefficient × 10^4 [5]: 54.836 +/− 0.25
Lifetime [5]: 0.92 +/− 0.057

B1: IRDye800-ABD (albumin binding domain peptide RLIEDICLPRWGCLWEDD conjugated to IRDye800CW) (peptide)
peptide: RLIEDICLPRWGCLWEDD
modifications: cysteine pairing not given here; also: IRDye800CW label attached via NHS ester, site not given here
notes: Made by adding a 1.75 times molar excess of IRDye800CW to the ABD peptide, then HPLC purified; also called IRDye800-ABD conjugate; ABD-IRDye800 conjugate
IC50 [12]: 1.19 nM
